According to patent publication US20120094939A1, “ANTI-VIRAL COMPOUNDS, COMPOSITIONS AND METHODS” (priority 2007, published 2012):

Tested on: Huh7/Rep-Feo cells
Assay: Primary HTS cell viability counter-screen (CellTiterGlo)
Assay type: cell-based, human
Conditions: for C-CompZ, compositeZ score for cell viability assay: Table 2 antiviral hits of DOS set, approximately 10-50 μM, most at 33 μM, 48 hours
Experimental: Primary Screening-HTS. Information about the library of known bioactive compounds that was screened and the general automated HTS protocol is available at http://www.broad.harvard.edu/chembio/index.html (see FIG. 10 for list of primary HTS with known bioactives library). Based on the results of optimization experiments in the 384-well plate format, the general HTS protocol was adapted as follows. Unless otherwise indicated, cells were incubated at all times in a humidified environment with 5% CO2 at 37° C. The assay was initiated by plating 30 μL of medium containing 2000 cells/well into white 384-well opaque-bottom plates (Nunc, Rochester, N.Y.) using an automated plate filler (Bio-Tek uFiller; Winsooki, Vt.) and allowing the cells to adhere for 24 hours. One hundred nL of compound stock solutions in DMSO was transferred from stock plates into the 384-well assay plates using an automated pin-based compound transfer robot (CyBio CyBi-Well vario; Woburn, Mass.). The final compound concentration in each well was estimated to be approximately 10-50 μM, with most compounds at 33 μM. The wells contained 0.33% DMSO by volume. The cells were then incubated for another 48 hours. The luminescent signal from each plate was detected using an automated plate reader (Perkin-Elmer Envision 1; Wellesley, Mass.). This screen was performed in duplicate. For negative controls, entire DMSO-treated control plates were employed, in addition to DMSO-only control wells that were incorporated into each compound assay plate. The cells were assayed for luciferase activity using the Bright-Glo Luciferase assay system (Promega), following the manufacturer's instructions. As a counter-screen, cell viability was assessed using the CellTiterGlo Luminescent cell viability assay (Promega) following the manufacturer's instructions.
Computational Data Analysis-Primary Screening. For each replicate, a mock-treatment distribution based on the total population of mock (DMSO) controls in that replicate was built (FIG. 11). Each compound was independently assigned a sign (ie, “+” or “−”) Z-score. Z-scores are calculated by dividing each background-subtracted, compound-treated well by the global standard deviation. A global standard deviation of the background-subtracted, mock-treated wells is calculated over the entire experiment. This distribution was determined to be consistent with experimental noise observed under cell-based assay conditions. The resulting collection of continuousvalued Z-scores represents the primary data set to be used for further analysis. The composite Z-score was calculated as a vector projection of each Z-score in duplicate onto an imaginary line of perfect reproducibility. Reproducibility is the cosine of the angle between each Z-score and that imaginary line; it is dimensionless and ranges from −1 to +1. […] The primary data were analyzed using the commercial software packages Pipeline Pilot (SciTegic, San Diego, Calif.) and SpotFire (SpotFire, Inc., Somerville, Mass.). The means of the negative, DMSO-only controls were considered the zero point.
Primary Screening—HTS: Unless otherwise indicated, cells were incubated at all times in a humidified environment with 5% CO2 at 37° C. The assay was initiated by plating 30 μl of medium containing 2,000 cells/well into white 384-well opaque-bottom plates (Nunc; Rochester, N.Y.) using an automated plate filler (Bio-Tek μFiller; Winsooki, Vt.) and allowing the cells to adhere for 24 hours. 100 nl of compound stock solutions in DMSO were transferred from stock plates into the 384-well assay plates using an automated pin-based compound transfer robot (CyBio CyBi-Well vario; Woburn, Mass.). The final compound concentration in each well was estimated to be approximately 10-50 μM, with most compounds at 33 μM. The wells contained 0.33% DMSO by volume. The cells were then incubated for another 48 hours. […]

Question: `Cc1cc(C)c(-c2cc([C@H](C)O/N=C3/[C@H]4CCn5c(=O)n(-c6ccccc6)c(=O)n5[C@H]4[C@H](O)[C@@H]4O[C@H]34)on2)c(C)c1` [BUCMLD-B10A11] was tested. Which “C-CompZ, compositeZ score for cell viability assay” value (“C-CompZ, compositeZ score” below) did it give?
Answer: −1.7178

Question: How did the “C-CompZ, compositeZ score” value turn out when `CC(=O)OC[C@H]1O[C@H](CCO/N=C2/[C@H]3CCn4c(=O)n(-c5ccccc5)c(=O)n4[C@H]3[C@H](O)[C@@H]3O[C@H]23)C=C[C@@H]1OC(C)=O` [BUCMLD-B10A3] was run?
Answer: −1.8907

Question: With `COc1cc2c(cc1OC)-c1c/c(=N\c3c(C)cc(C)cc3C)n(C)c(=O)n1CC2` [trequinsin, reference compound] as the compound, how does the “cytotoxicity in the primary screen” value (tested at 33 μM) read?
Answer: cytotoxic

Question: `O=C1C2(CO)C=C(Br)C(CC2c2ccccc2)[C@@]12CO2` (stereo partly drawn) [SM_A6B5_2P100] was tested. Which “C-CompZ, compositeZ score” value did it give?
Answer: −0.2965

Question: With `Cc1cc2c(nc1C)CCCN2CC(C)O/N=C1/[C@H]2CCn3c(=O)n(-c4ccccc4)c(=O)n3[C@H]2[C@H](O)[C@@H]2O[C@H]12` (stereo partly drawn) [BUCMLD-B10A5] as the compound, how does the “C-CompZ, compositeZ score” value read?
Answer: 0.3574

Question: For `O=C1C2C=C(I)C(CC2OCCCCO)[C@@]12CO2` (stereo partly drawn) [SM_A5B3_2P141], which “C-CompZ, compositeZ score” value is on record?
Answer: 0.6345
